Source: US9205141B2, “Immunomodulatory methods and systems for treatment and/or prevention of hypertension” (Cardio Vax, LLC, priority 2010, dated 2015)

Columns and labels:
bone marrow derived DCs = assay: Cytolytic activity of CD8(+) T cells from immunized mice against dendritic cells in vitro; format: cell-based
Protocol: In Vitro Generation of BM-Derived dendritic cells (BMDCs) The method for generating BMDC with GM-CSF was adapted from previous publication with modification. (19) Briefly, bone marrow cells from femurs and tibiae of male apoE−/− mice were plated into 10 cm culture plates (Falcon) with 20 ml complete RPMI-1640 containing 10 ng/ml GM-CSF (R&D Systems) and 10 ng/ml IL-4 (Invitrogen). Cells were washed and fed on day 3 and day 5 by removing the old medium followed by replenishing with fresh culture medium with GM-CSF and IL-4. On day 8, the immature DC appeared as non-adherent cells under the microscope and harvested by vigorous pipetting and subcultured into new culture plates with 2×10^5 DCs in 1.5 ml medium.
CD8(+) T-cells were negatively isolated using a CD8 selection Dynabeads kit (Invitrogen) per manufacturer's protocol. The selected CD8(+) T-cells were then co-culture with DCs in a CD8:DC ratio of 3:1. A series of pilot studies has been performed to determine the optimal CD8:DC ratio for this assay. After co-culture for 4 hours, cells were collected and processed for flow cytometric determination of CD11c and 7-AAD by LSR II flow cytometer (BD Biosciences) and data was analyzed with Summit V4.3 software. Dendritic cell death without CD8(+) T-cells in the co-culture was used as baseline and percentage of specific lysis of cells was calculated using a method described previously. (20)
One week after the third immunization, mice were euthanized to collect spleen CD8^+ T cells. Bone-marrow derived DCs were differentiated from naïve apoE−/− mice and used as target cells. […]
Applicants therefore assessed the effect of the vaccine on cytotoxic activity of CD8^+ T cells against syngeneic bone marrow-derived DCs. […] Cells were collected and processed for flow cytometric determination of CD11c^+ and 7-AAD 4 hours later.^20 Dendritic cell death without CD8^+ T cells in the co-culture was used as baseline and percentage of specific lysis of cells was calculated using a method described previously.^20

male apoE (−/−) mice = assay: Athero-protective effect of p210 immunization in apoE (−/−) mice on high cholesterol chow; format: in vivo; conditions: 100 μg dose compared to 25 or 50 μg dose
Description: Selection of peptides and their preparation for immunization The establishment and screening of human apoB-100 peptides has been reported (8). Based on Applicants pilot experiments and prior reports, (9),(10) Applicants selected peptide 210 (p210, KTTKQ SFDLS VKAQY KKNKH—SEQ ID NO: 210) as a candidate immunogen. Native p210 peptide (Euro-Diagnostica AB, Sweden) was conjugated to cationic bovine serum albumin (cBSA) as carrier using a method described previously. (3),(4) Alum was used as adjuvant and mixed with peptide/cBSA conjugate with 1:1 ratio in volume. Peptide conjugation and mixing with alum were prepared fresh prior to each immunization.
Immunization protocols Male apoE (−/−) mice (Jackson Laboratories) were housed in an animal facility accredited by the American Association of Accreditation of Laboratory Animal Care and kept on a 12-hour day/night cycle with unrestricted access to water and food. The Institutional Animal Care and Use Committee of Cedars-Sinai Medical Center approved the experimental protocols. […] Mice, maintained on normal chow diet, received subcutaneous primary immunization in the dorsal area between scapulas at 6-7 weeks of age, followed by a booster at 9 and 12 weeks of age. One week after last booster, diet was switched to high cholesterol chow (TD 88137, Harlan-Teklad) and continued until euthanasia at the age of 25 weeks. […]

BMDCs = assay: Endocytosis of FITC-labeled p210 by DCs in vitro; format: cell-based, mice; conditions: FITC fluorescence in BMDCs
Description: Peptide loading on BMDCs was defined using p210 labeled with FITC (FITC conjugating kit from Pierce).

[1] = system: naïve male apoE (−/−) recipient mice; assay: Adoptive transfer of cells from immunized donors to naive apoE (−/−) recipients; format: in vivo
Description: Adoptive transfer experiment Male apoE (−/−) mice on regular chow received subcutaneous immunization as described in previous paragraph and were sacrificed at 13 weeks of age as donors. Splenocytes from the same treatment group were pooled before cell isolation. Donor CD8(+) T-cells, CD4(+)CD25(+) T-cells or B-cells were isolated using Dynabeads FlowComp (Invitrogen) according to the manufacturer's protocols. CD4(+) T-cells were negatively selected from the splenocytes followed by positive selection of CD4(+)CD25(+) cells. B cells were negatively isolated whereas CD8(+) T-cells were positively isolated first and released from beads. The purity of pooled CD8(+) T-cells, CD4(+)CD25(+) T-cells and B-cells was 90%, 80% and 70%, respectively. The isolated CD8(+) T-cells (1×10^6 cells/mouse), CD4(+)CD25(+) T-cells (1×10^5 or 3×10^5 cells/mouse) or B-cells (2×10^7 cells/mouse) were then adoptively transferred to naïve male apoE (−/−) recipient mice at 6-7 weeks of age via tail vein injection. In the published literatures of vascular biology, the number of adoptively transferred lymphocytes varied greatly. For B-cells transfer, the number of 2×10^7 cells/mouse was chosen based on two prior reports. (11),(12) For CD4(+)CD25(+) T-cells transfer, the number of cells transferred ranged from 5×10^4 cells/mouse to 1×10^6 cells/mouse in the published literature. […]

[2] = system: CD8+CD25− T cells co-cultured with DCs; assay: Presentation of p210 by DCs to CD8+CD25− T cells in co-culture; format: cell-based; conditions: 48 hours, DCs treated with LPS, compared to untreated or LPS only treated co-cultures
Description: The p210 peptide contains the proteoglycan binding site of the apoB-100 molecule. This peptide is a cell-penetrating peptide capable of efficiently delivering antigens for cross-presentation to cytotoxic CD8^+ T cells.^53 Applicants therefore assessed activation of CD8^+CD25^− T cells co-cultured with DCs loaded with p210 and matured with LPS.

[3] = system: AngII-infused male apoE KO mice; assay: Blood pressure and heart rate in angiotensin II-infused apoE KO mice after P210 immunization; format: in vivo; conditions: apoE KO mice immunized s.c. 100 μg at 7, 10, 12 weeks; AngII 1000 ng/Kg/min; 4 weeks after pump implantation
Protocol: Saline was delivered to the control group.
Angiotensin II infusion via implanted osmotic pump was started at 10 weeks of age. Mice were euthanized at 14 weeks of age. Blood pressure was measured throughout the duration of experiment.

[4] = CD8(+) T-cells from immunized mice vs PBS or cBSA/alum

In the case of “KTTKQ SFDLS VKAQY KKNKH (KTTKQSFDLSVKAQYKKNKH) [p210, amino acids 3136-3155 of human apoB-100]”, the “granzyme B expression of CD8(+) T-cells” value (bone marrow derived DCs; [4]) is reported as “increased granzyme B expression”, the “perforin level of CD8(+) T-cells” value (bone marrow derived DCs; [4]) is reported as “no difference in perforin level” and the “cytolytic activity after depletion of CD25+ cells” value (bone marrow derived DCs; CD8+ T cells depleted of CD25+ cells) is reported as “abrogated the increased cytolytic activity”. For the same substance, the “athero-reduction by dose (pilot experiment)” value (male apoE (−/−) mice) was “optimum athero-reduction”, the “uptake of FITC-labeled p210 by dendritic cells” value (BMDCs) was “endocytosed by DCs” and the “lesion size in recipients of CD4(+)CD25(+) T-cells” value ([1]; 1×10^5 cells/mouse) was “no difference in lesion size”. The “lesion size in recipients of CD4(+)CD25(+) T-cells” value ([1]; 3×10^5 cells/mouse) was “did not reduce lesion sizes”, the “activated CD8+CD25+ T cells after co-culture with p210-loaded DCs” value [2] was “significantly increased CD8^+CD25^+ T cells” and the “reduction in blood pressure” value [3] was “about 11%”.
